{"source": "patent US20050159390A1", "about": "“Treatment and prevention of HIV and other viral infections” (priority 1998, published 2005)", "key": {"HIV-1 MN": {"system": "HIV-1 MN", "experiment": "P-24 assay, syncytia and CPE in infected PBMCs", "type": "cell-based", "protocol": "PBMCs were isolated as described above and incubated with HIV-1 MN (NIH AIDS reagent program, catalog #137) at 37° C. for 3 hours in 15 mL tubes. Test groups included uninfected PBMCs, infected PBMCs with no N-glycolylneuraminic acid, and infected PBMCs plus N-glycolylneuraminic acid. […] Excess virus was removed by washing the cells with PBS one time then the cells were exposed to N-glycolylneuraminic acid. P24 output was measured using the DuPont P24 assay kit (optical density (OD) in Table 15). Syncytia formation was examined as well as cytopathic effects (CPE). […] Sample #7 (p24 123×10^6 pg HIV-1P24/ml) was excluded from the mean P24 output calculation due to a sampling error."}, "TNFα": {"system": "TNFα", "experiment": "TNFα production in latently infected promonocytic U1 cells, ELISA", "type": "cell-based", "conditions": "read-out: Inhibition of TNFα Production % of Control", "protocol": "TNFα production was determined by an enzyme linked immunosorbent assay (ELISA) in a competitive format, using a commercially available anti-TNFα antibody. Inhibition of TNFα production is reported as percent of saline control in Table 18 and was dose dependent."}, "Molt-4": {"system": "Molt-4", "experiment": "Cell proliferation in treated cell lines", "type": "cell-based, human", "conditions": "treated cell line; 0 to 200 μM or 1000 μM"}, "PBMCs": {"system": "PBMCs", "type": "cell-based, human", "conditions": "human, 6 days", "protocol": "For the standard PBMC assay, PHA-P stimulated cells from at least two normal donors were pooled, diluted in fresh medium to a final concentration of 1×10^6 cells/mL, and plated in the interior wells of a 96 well round bottom microplate at 50 μL/well (5×10^4 cells/well). Test drug dilutions were prepared at a 2× concentration in microfuge tubes and 100 μL of each concentration was placed in appropriate wells in a standard format. A predetermined dilution of virus stock was placed in each test well (50 μL, final MOI≅0.1). Wells with cells and virus alone were used for virus control. Separate plates were prepared identically without virus for drug cytotoxicity studies using an XTT assay system. […]\nTetrazolium dye staining of screening plates: After 6 days of incubation (37° C. with 5% CO2), the test plates were analyzed by staining with the tetrazolium dye XTT (2,3-b (2-methoxy-4-nitro-5-sulfophenyl)-2H-tetrazolium-5-carboxanilide). XTT-tetrazolium is metabolized by mitochondrial enzymes of metabolically active cells to a soluble formazan product, allowing the rapid quantitative analysis of the inhibition of HIV-induced cell killing by anti-HIV compounds. […] Plates were sealed with adhesive plate sealers and inverted several times to mix the soluble formazan product and the plate was read spectrophotometrically at 450 nm with a Molecular Devices Vmax plate reader. […]"}, "HepG2": {"system": "HepG2", "experiment": "Cell proliferation in treated cell lines", "type": "cell-based, human", "conditions": "treated cell line; 0 to 200 μM or 1000 μM"}, "X4 strain LAI/IIIB": {"system": "X4 strain LAI/IIIB", "experiment": "RT activity in infected PBMCs treated with carbohydrates", "type": "cell-based, HIV", "conditions": "summary of Table 17", "protocol": "Reverse Transcriptase Activity Assay: A microtiter based reverse transcriptase (RT) reaction was utilized as described by Buckheit et al., (1991), AIDS Research and Human Retroviruses, 7: 295-302. Tritiated thymidine triphosphate (3H-TTP) was suspended in distilled H2O at 5 Ci/mL. Poly rA and oligo dT were prepared as a stock solution which was kept at −20° C. RT reaction buffer was prepared fresh on a daily basis and contained 125 μL 1M EGTA, 125 μL dH2O, 110 μL 10% SDS, 50 μL 1M Tris (pH 7.4), 50 μL 1M DTT, and 40 μL 1M MgCl2. These three solutions were mixed together in a ratio of 2 parts 3H-TTP, 1 part poly rA:oligo dT, and 1 part reaction buffer. Ten microliters of this reaction mixture were placed in a round bottom microtiter plate and 15 μL of virus containing supernatant were added and mixed. The plate was incubated at 37° C. in a water bath with a solid support to prevent submersion of the plate and incubated for 60 minutes. […] Opti-Fluor-O (Packard) was added to each sample and incorporated radioactivity was quantified utilizing a Wallac 1450 MicroBeta Plus liquid scintillation counter. […]\nNo carbohydrates were added to the control sample. RT activity was determined at 3, 6, 9, 13, 17, and 20 days post-infection (PI) with X4 strain LAI/IIIB."}, "DU-145": {"system": "DU-145", "experiment": "Cell proliferation in treated cell lines", "type": "cell-based, human", "conditions": "treated cell line; 0 to 200 μM or 1000 μM"}, "HT1080": {"system": "HT1080", "experiment": "Cell proliferation in treated cell lines", "type": "cell-based, human", "conditions": "treated cell line; 0 to 200 μM or 1000 μM"}, "HIV-1RF": {"system": "HIV-1RF", "experiment": "CEM-SS cell-based assay, inhibition of HIV-induced cell killing (XTT)", "conditions": "3.2 μM to 1 mM", "protocol": "Cell Preparation: Prior to infection, CEM-SS cells were grown in complete tissue culture medium (RPMI 1640 medium with 10% heat-inactivated fetal bovine serum, 2 mM L-glutamine, 100 U/mL penicillin, 100 μg/mL streptomycin, 10 μg/mL gentamycin) and transferred to T-150 flasks. On the day preceding the assay, the cells were split 1:2 to assure the cells would be in an exponential growth phase at time of infection. On the day of assay, the cells were washed twice with tissue culture medium and resuspended in fresh tissue culture medium. […]\nVirus Preparation: Pre-tittered aliquots of HIV-1ROJO and HIV-1RF were removed from the freezer (−80° C.) and thawed to room temperature in a biological safety cabinet. The virus was resuspended and diluted into tissue culture medium such that the amount of virus added to each well in a volume of 50 μL will be the amount determined to give complete cell killing at 6 days post-infection.\nTetrazolium dye staining of screening plates: After 6 days of incubation (37° C. with 5% CO2), the test plates were analyzed by staining with the tetrazolium dye XTT (2,3-b (2-methoxy-4-nitro-5-sulfophenyl)-2H-tetrazolium-5-carboxanilide). XTT-tetrazolium is metabolized by mitochondrial enzymes of metabolically active cells to a soluble formazan product, allowing the rapid quantitative analysis of the inhibition of HIV-induced cell killing by anti-HIV compounds. […]"}, "HSF": {"system": "HSF", "experiment": "Cell proliferation in treated cell lines", "type": "cell-based, Human", "conditions": "treated cell line; 0 to 200 μM or 1000 μM"}, "HIV-1IIIB": {"system": "HIV-1IIIB", "experiment": "CEM-SS cell-based assay, inhibition of HIV-induced cell killing (XTT)", "conditions": "3.2 μM to 1 mM"}, "gp120": {"molecular_target": "T1, gp120 (Human immunodeficiency virus type 1 group M subtype B, UniProt P05877)", "T1 construct": "host or cells: HIV MN virus added to CEM-SS cells", "experiment": "Inhibition of gp120 binding, HIVMN to CEM-SS cells", "parameters": "species or system HIV"}}}
{"smiles": "O=C(CO)N[C@H]1[C@H]([C@H](O)[C@H](O)CO)OC(O)(C(=O)O)C[C@@H]1O", "note": "(some centres unmarked) [N-glycolylneuraminic acid]", "values": [{"measurement": "CPE", "setting": "HIV-1 MN; dilution 1:2", "result": "negative"}, {"measurement": "Syncytia", "setting": "HIV-1 MN; dilution 1:2", "result": "negative"}, {"measurement": "CPE", "setting": "HIV-1 MN; dilution 1:4", "result": "negative"}, {"measurement": "Syncytia", "setting": "HIV-1 MN; dilution 1:4", "result": "negative"}, {"measurement": "CPE", "setting": "HIV-1 MN; dilution 1:8", "result": "negative"}, {"measurement": "Syncytia", "setting": "HIV-1 MN; dilution 1:8", "result": "negative"}, {"measurement": "CPE", "setting": "HIV-1 MN; dilution 1:16", "result": "negative"}, {"measurement": "Syncytia", "setting": "HIV-1 MN; dilution 1:16", "result": "negative"}, {"measurement": "CPE", "setting": "HIV-1 MN; dilution 1:32", "result": "negative"}, {"measurement": "Syncytia", "setting": "HIV-1 MN; dilution 1:32", "result": "negative"}, {"measurement": "CPE", "setting": "HIV-1 MN; dilution 1:64", "result": "negative"}, {"measurement": "Syncytia", "setting": "HIV-1 MN; dilution 1:64", "result": "negative"}, {"measurement": "inhibition at 0.1 µM", "setting": "TNFα; 0.1 μM", "result": 0, "unit": "%"}, {"measurement": "inhibition at 0.3 µM", "setting": "TNFα; 0.3 μM", "result": 0, "unit": "%"}, {"measurement": "inhibition at 10 µM", "setting": "TNFα; 10 μM", "result": 9.8, "unit": "%"}, {"measurement": "inhibition at 30 µM", "setting": "TNFα; 30 μM", "result": 22.6, "unit": "%"}, {"measurement": "inhibition at 100 µM", "setting": "TNFα; 100 μM", "result": 96, "unit": "%"}, {"measurement": "% Confluency (day 5)", "setting": "Molt-4", "result": 50, "unit": "%"}, {"measurement": "TC50", "setting": "PBMCs", "result": "> 1000", "unit": "µM"}, {"measurement": "% Confluency (day 5)", "setting": "HepG2", "result": 50, "unit": "%"}, {"measurement": "RT activity in treated cells (in words)", "setting": "X4 strain LAI/IIIB", "result": "RT activity was decreased"}, {"measurement": "% Confluency (day 5)", "setting": "DU-145", "result": 100, "unit": "%"}, {"measurement": "% Confluency (day 5)", "setting": "HT1080", "result": 100, "unit": "%"}, {"measurement": "anti-HIV activity", "setting": "HIV-1RF", "result": "did not display anti-HIV activity"}, {"measurement": "% Confluency (day 5)", "setting": "HSF", "result": 100, "unit": "%"}, {"measurement": "anti-HIV activity", "setting": "HIV-1IIIB", "result": "did not display anti-HIV activity"}, {"measurement": "Inhibition of gp120 Binding (% of control)", "setting": "gp120; 20 μm/ml", "result": 9.8, "unit": "%"}, {"measurement": "Inhibition of gp120 Binding (% of control)", "setting": "gp120; 80 μm/ml", "result": 57.6, "unit": "%"}, {"measurement": "Inhibition of gp120 Binding (% of control)", "setting": "gp120; 200 μm/ml", "result": 86.8, "unit": "%"}]}
